These results are taken from US20150291658A1, “NOVEL CHONDRAMIDE DERIVATIVES” (HELMOLTZ-ZENTRUM FÜR INFEKTIONSFORSCHUNG, priority 2012, published 2015).

Experiment [1] relates to RAW246.7: murine leukemic monocyte macrophages. Nature of the experiment: Growth inhibition experiments (GI50), RAW246.7. Particulars: group A derivatives, small panel of cancer cell lines. It is filed as cell-based.
Experiment [2] relates to human U-2 OS osteosarcoma cell line. Nature of the experiment: Growth inhibition experiments (MTT, 5 d), U-2 OS. Type of experiment: cell-based. As for the experimental part: (§1) Cells were seeded at 6×10^3 cells per well of 96-well plates (Corning CellBind®) in 180 μl complete medium and directly treated with chondramides dissolved in methanol in a serial dilution. Each compound was tested in duplicate for 5 d, as well as the internal methanol control. After 5 d incubation, 20 μl of 5 mg/ml MTT (Mosmann, T. (1983). Rapid Colorimetric Assay for Cellular Growth and Survival: Application to Proliferation and Cytotoxicity Assays. J. Immunol. Meth. 65, 55-63) in PBS was added per well and it was further incubated for 2 h at 37° C. The medium was then discarded and cells were washed with 100 μl PBS before adding 100 μl 2-propanol/10 N HCl (250:1) in order to dissolve formazan granules. The absorbance at 570 nm was measured using a microplate reader (EL808, Bio-Tek Instruments Inc.), and cell viability was expressed as percentage relative to the respective methanol control. GI50 values were obtained by sigmoidal curve fitting. Testing of fractions was performed likewise using 1.2×10^4 cells per well. Samples were dissolved in cell culture medium and cells were treated for 2 d before adding MTT. Viability was expressed relative to the untreated control.

Experiment [3] deals with KB-3.1: human cervical carcinoma. Nature of the experiment: Growth inhibition experiments (GI50), KB-3.1. Conditions: for GI50 KB-3.1: group A derivatives, small panel of cancer cell lines, KB-3.1 human cervical carcinoma; for GI50 values KB-3.1: Table 1. Type of experiment: cell-based.
For experiment [4], the system named is HCT-116 colon carcinoma cell line. Nature of the experiment: Growth inhibition experiments (MTT, 5 d), HCT-116. Type of experiment: cell-based, human. On the procedure: as §1
Experiment [5] concerns HUVEC, human umbilical vein endothelial cells (primary cells). Description: Growth inhibition experiments (MTT, 5 d), HUVEC. It is filed as cell-based. Particulars: Table 1.
Text: (§2) With primary cells (HUVEC, human umbilical vein endothelial cells) and the fibroblast cell line MRC5 this is not the case. Whereas chondramides A˜C are comparably active on both, cancer and non-cancerous cells, brominated chondramide C3 analogs are on average by factor 2-4 less toxic for non-cancerous cells. Accordingly they show a higher selectivity.
Cell lines were obtained from the American Type Culture Collection (ATCC) and the German Collection of Microorganisms and Cell Cultures (Deutsche Sammlung für Mikroorganismen and Zellkulturen, DSMZ), and HUVEC (single donor) were purchased from PromoCell. Cells were cultured under the conditions recommended by the respective depositor in a standard humidified incubator at 37° C. with 5% CO2.
as §1

Experiment [6] relates to fibroblast cell line MRC5. Description: Growth inhibition experiments (MTT, 5 d), MRC5. It is filed as cell-based, human. Particulars: Table 1. On the procedure:
as §2, §1

Experiment [7] concerns L-929. Nature of the experiment: Growth inhibition experiments (GI50), L-929. Type of experiment: cell-based. Conditions: Table 1.
For experiment [8], the system named is multidrug resistant (MDR) KB-V.1 cell line. Nature of the experiment: Growth inhibition experiments (MTT, 5 d), KB-V.1. It is filed as cell-based. Particulars: Table 1. On the procedure:
Cancer Inst. 90, 1559-1563). […] The same applies for most novel derivatives, solely a hydroxyl group at C2′ of the polyketide segment instead of methoxy or simply hydrogen leads to an approximately 10-fold reduced potency. GI50 values of glycosylated derivatives were not determinable precisely in the assay's concentration range.
as §1

The mark [9] stands for this setting: group A derivatives, small panel of cancer cell lines, U-2 OS human osteosarcoma, read-out: GI50 U-2 OS.
[10] abbreviates: group A derivatives, small panel of cancer cell lines, HCT-116 human colon carcinoma, read-out: GI50 HCT-116.
The mark [11] stands for this setting: Table 1, U-2 OS, read-out: GI50 values U-2 OS.
Setting [12] is: Table 1, HCT-116, read-out: GI50 values HCT-116.

Like-named read-outs stand apart in the source and are kept apart here.

`C/C1=C\CCOC(=O)CC(c2ccc(O)c(Cl)c2)NC(=O)C(Cc2c(Cl)[nH]c3ccccc23)N(C)C(=O)C(C)NC(=O)CC1` (centres unmarked) [CA2]: the 50% growth inhibitory concentration (GI50) (commonly the concentration that inhibits growth by half) turned out to be 180 nM in experiment [1], 66.7 nM in experiment [2] (setting [9]) and 30.5 nM in experiment [4] (setting [10]). For the same compound, in experiment [3], the “GI50 KB-3.1” value worked out at 375.9 nM.
The matching figures for `C/C1=C\CCOC(=O)CC(c2ccc(O)c(Cl)c2)NC(=O)C(C(C)C)N(C)C(=O)C(C)NC(=O)CC1` (centres unmarked) [CA9]: above 180 nM, above 180 nM, 180 nM and above 180 nM.
Consider `CO[C@@H]1C(=O)O[C@H](C)[C@@H](C)C=C(C)C[C@H](C)C(=O)N[C@@H](C)C(=O)N(C)[C@H](Cc2c(Cl)[nH]c3ccccc23)C(=O)NC1c1ccc(O)cc1` (some centres unmarked) [Chondramide B, reference compound], for which the GI50 is 30.7 ± 2.9 nM in experiment [5]; 20.8 ± 1.9 nM in experiment [2] (setting [11]); 20.9 ± 3.2 nM in experiment [6]; 80.8 ± 13.6 nM in experiment [7]; 30.1 ± 9.5 nM in experiment [4] (setting [12]). Besides, the “GI50 values KB-V.1” value in experiment [8] is 56.4 ± 9.1 nM. Moreover, in experiment [3], the “GI50 values KB-3.1” value stood at 40.7 ± 9.4 nM.
For `CCC1C/C=C(\C)CC(C)C(=O)NC(C)C(=O)N(C)C(C(C)C)C(=O)NC(c2ccc(O)c(Cl)c2)CC(=O)O1` (single isomer, unassigned) [CA6-Fr1], the 50% growth inhibitory concentration (GI50) in experiment [1] was found to be 41.1 nM; in experiment [2] (setting [9]), 59.6 nM; in experiment [4] (setting [10]), 79.4 nM. For the same compound, the “GI50 KB-3.1” value in experiment [3] turned out to be 71.4 nM.
`C/C1=C\[C@@H](C)[C@@H](C)OC(=O)C[C@H](c2ccc(O)cc2)NC(=O)[C@@H](Cc2c[nH]c3ccccc23)N(C)C(=O)[C@H](C)NC(=O)[C@@H](C)C1` [Chondramide C, reference compound]: the GI50 in experiment [5] turned out to be 34 ± 3.7 nM; in experiment [2] (setting [11]), 25.6 ± 1.2 nM; in experiment [6] it was 26.1 ± 4.7 nM; in experiment [7], 87.3 ± 14.9 nM; in experiment [4] (setting [12]) it was 33.7 ± 3.2 nM. Besides, the “GI50 values KB-V.1” value in experiment [8] turned out to be 85.8 ± 14.9 nM. Besides, the “GI50 values KB-3.1” value in experiment [3] is 36.8 ± 6.8 nM.
In the case of `C/C1=C\CCOC(=O)CC(c2ccc(O)c(Br)c2)NC(=O)C(Cc2c[nH]c3ccccc23)N(C)C(=O)C(C)NC(=O)CC1` (centres unmarked) [CA3], the 50% growth inhibitory concentration (GI50) in experiment [1] came out at 6.2 nM; in experiment [2] (setting [9]), 1.8 nM; in experiment [4] (setting [10]) it was 2.1 nM. The “GI50 KB-3.1” value in experiment [3] turned out to be 6.4 nM.
With `CCC1C/C=C(\C)CCC(=O)NC(C)C(=O)N(C)C(C(C)C)C(=O)NC(c2ccc(O)c(Cl)c2)CC(=O)O1` (centres unmarked) [CA5], the values for the GI50 in experiment [1], in experiment [2] (setting [9]) and in experiment [4] (setting [10]) were 56.2 nM, 153 nM and 77.3 nM, respectively. In experiment [3], the “GI50 KB-3.1” value was found to be 68.7 nM.
The matching figures for `CCC1C/C=C(\C)CCC(=O)NC(C)C(=O)N(C)C(C(C)C)C(=O)NC(c2ccc(O)c(Cl)c2)CC(=O)O1` (centres unmarked) [CA4]: 29.8 nM, above 180 nM, 25.5 nM and 58.2 nM.
Taken in the same sequence, the figures for `CCC1C/C=C(\C)CC(C)C(=O)NC(C)C(=O)N(C)C(Cc2c(Cl)[nH]c3ccccc23)C(=O)NC(c2ccc(O)c(Cl)c2)CC(=O)O1` (single isomer, unassigned) [CA7-Fr2] were 1.8 nM, 1.3 nM, 0.8 nM and 1.9 nM.
Taken in the same sequence, the figures for `CCC1C/C=C(\C)CCC(=O)NC(C)C(=O)N(C)C(Cc2c(Cl)[nH]c3ccccc23)C(=O)NC(c2ccc(O)c(Cl)c2)CC(=O)O1` (centres unmarked) [CA8] were 0.8 nM, 0.6 nM, 0.2 nM and 1.1 nM.
On to `CC1=CC(C)C(C)OC(=O)CC(c2ccc(O)c(Br)c2)NC(=O)C(Cc2c[nH]c3ccccc23)N(C)C(=O)C(C)NC(=O)C(C)C1` (centres unmarked) [Bromo-Chondramide C3], for which the GI50 was found to be 44.4 ± 7 nM in experiment [5]; 4.8 ± 1.7 nM in experiment [2] (setting [11]); 57.7 ± 3.5 nM in experiment [6]; 14 ± 1.4 nM in experiment [7]; 17.7 ± 1.3 nM in experiment [4] (setting [12]). The “GI50 values KB-V.1” value in experiment [8] came to 23.8 ± 2.1 nM. In experiment [3], the “GI50 values KB-3.1” value was 46.8 ± 6.5 nM.
